{"source": "patent US9314383B2", "about": "“Absorptive article” (UNICHARM CORPORATION, priority 2012, dated 2016)"}
{"excerpt": "The term “solubility” used herein in regard to water solubility includes cases where the sample completely dissolves in deionized water to form a homogeneous mixture, and cases where the sample is completely emulsified. Here, “completely” means that no mass of the sample remains in the deionized water.", "units": {"Water solubility": "g"}}
{"smiles": "CCCCC(CC)C(=O)OCC(C)(C)COC(=O)C(CC)CCCC", "note": "(stereo not drawn) [H-208BRS, Neopentyl glycol di(2-ethylhexanoate)]", "Water solubility": "<0.05"}
{"smiles": "CC(C)CCCCCCCCCCCCCCCOC(=O)CC(O)C(=O)OCCCCCCCCCCCCCCCC(C)C", "note": "(stereo not drawn) [Diisostearyl malate]", "Water solubility (g)": "20< g"}
{"smiles": "CCCCOC(=O)CC(CC(=O)OCCCC)(OC(C)=O)C(=O)OCCCC", "note": "[Tributyl O-acetylcitrate]", "Water solubility": "<0.05"}
{"smiles": "CCCCCCCC(=O)OCC(COC(=O)CCCCCCC)OC(=O)CCCCCCC", "note": "[PANACET 800]", "Water solubility": "<0.05"}
{"smiles": "CCCCCCCCCCCC(=O)OCC(O)CO", "note": "(stereo not drawn) [90-L2 Lauric acid monoglyceride, lauric acid monoglyceride]", "Water solubility (g)": "20< g"}
{"smiles": "CCCCC(CC)C(=O)OCC(COC(=O)C(CC)CCCC)OC(=O)C(CC)CCCC", "note": "(stereo not drawn) [PANACET 800B]", "Water solubility": "<0.05"}
